Measured values published in publication PMC8770581 (ChemMedChem, 2021).
“Also recorded” adds a separate entry of the source. Where two headings read alike, the source gives them in different places.

Assays:
α-syn fibrils [1] = target: T1, α-syn fibrils (Homo sapiens, UniProt P37840); settings: read-out: Kd α-syn; fibril saturation binding; cited from earlier work
Aβ fibrils [2] = target: T2, Aβ fibrils (Homo sapiens, UniProt P05067); settings: read-out: Kd Aβ; fibril saturation binding; cited from earlier work
T2 sequence (P05067 672-711): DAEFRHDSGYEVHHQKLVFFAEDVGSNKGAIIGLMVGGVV

α-syn fibrils [3] = target: T1, α-syn fibrils; test: α-Synuclein fibril/ligand saturation binding assay; settings: for selectivity for α-syn fibrils compared with amyloid-β (Aβ) and tau fibrils: abstract; for Selectivity α-syn v/s Aβ: from Kd Aβ and Kd α-syn
Aβ (1–40) fibrils = Aβ (1–40) fibrils (Homo sapiens, UniProt P05067); test: Aβ fibril/ligand saturation binding assay
Aβ (1–40) fibrils, sequence (P05067 672-711): as above

[4] = target: tau fibrils (Tau-441, 2N4R) (Homo sapiens, UniProt P10636); test: Tau fibril/ligand saturation binding assay; settings: for α-syn versus tau binding selectivity: from Kd tau and Kd α-syn
tau fibrils (Tau-441, 2N4R), sequence (P10636 1-441 isoform P10636-8): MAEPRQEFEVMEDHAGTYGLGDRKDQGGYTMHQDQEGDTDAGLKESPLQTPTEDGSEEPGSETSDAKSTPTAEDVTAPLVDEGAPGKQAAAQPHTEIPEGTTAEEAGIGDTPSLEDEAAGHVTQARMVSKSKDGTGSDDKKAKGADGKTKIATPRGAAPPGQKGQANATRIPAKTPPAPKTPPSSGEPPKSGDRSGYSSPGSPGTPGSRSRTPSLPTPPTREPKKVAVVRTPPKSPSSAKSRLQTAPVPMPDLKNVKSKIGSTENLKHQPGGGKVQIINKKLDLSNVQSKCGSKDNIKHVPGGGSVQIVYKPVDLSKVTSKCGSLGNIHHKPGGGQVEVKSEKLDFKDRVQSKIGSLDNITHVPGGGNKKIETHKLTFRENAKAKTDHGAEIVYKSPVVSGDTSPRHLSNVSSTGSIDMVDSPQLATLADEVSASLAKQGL

[5] = Absorption/emission maxima and fluorescence quantum yield of free ligand in PBS; assay type: physicochemical; settings: for Absmax / Emmax: free ligand in PBS
α-syn fibrils [6] = target: T1, α-syn fibrils; test: Fluorescent properties of ligand-α-syn fibril complex; assay type: physicochemical
Aβ fibrils [7] = target: T2, Aβ fibrils; test: Fluorescent properties of ligand-Aβ fibril complex; assay type: physicochemical
[8] = target: Aβ plaques in human AD brain tissue (Homo sapiens, UniProt P05067); test: Fluorescent staining of human AD brain tissue sections; settings: cortical sections, co-stained with antibody 4G8
Aβ plaques in human AD brain tissue, sequence (P05067 672-711 limits assumed): as the sequence (P05067 672-711) above

[9] = Kd α-syn, Table 1, synthetic α-syn fibrils 2.5 μM, 1 hour, mean ± SD (n = 3)
[10] = Kd α-syn, Table 3 and text, α-syn fibrils, saturation binding, mean ± SD (n = 3)

Kd (α-syn fibrils [3]; [9]) [nM] | Kd (α-syn fibrils [3]; [10]) [nM] | selectivity for α-syn fibrils compared with amyloid-β (Aβ) and tau fibrils (α-syn fibrils [3]) | Selectivity α-syn v/s Aβ (α-syn fibrils [3]) [x] | Kd (Aβ (1–40) fibrils) [nM] | Kd [4] [nM] | α-syn versus tau binding selectivity [4] [x] | Fluorescence quantum yield Free ligand [5] | Absmax [5] | Emmax [5] | Absmax Ligand + α-syn (α-syn fibrils [6]) | Emmax Ligand + α-syn (α-syn fibrils [6]) | Fluorescence quantum yield Ligand + α-syn (α-syn fibrils [6]) | Absmax Ligand + Aβ (Aβ fibrils [7]) | Emmax Ligand + Aβ (Aβ fibrils [7]) | Fluorescence quantum yield Ligand + Aβ (Aβ fibrils [7]) | Kd (α-syn fibrils [3]; Kd α-syn (reported as no binding), α-syn fibrils, saturation binding) [nM] | Structure (SMILES) | Kd (α-syn fibrils [1]) [nM] | Kd (Aβ fibrils [2]) [nM] | labeling of Aβ pathology in AD brain sections [8]
– | – | – | – | – | – | – | – | – | – | – | – | – | – | – | – | – | CN(C)c1ccc(-c2cc(-c3ccnc(Br)c3)[nH]n2)cc1 [[^11C]MODAG-001] | 0.6 ± 0.1 | 20 ± 10 | –
9 ± 0.5 | 9 ± 0.5 | greater than 10 x | 15.6 | 140 ± 4.2 | 388 ± 38.2 | 43 | 0.0079 | 405 | 542 | 446 | 585 | 0.078 | 441 | 579 | 0.1363 | – | COc1cc(/C=C/C=C2\Cc3ccccc3C2=O)ccc1O [compound 8, (E)-2-((E)-3-(4-Hydroxy-3-methoxyphenyl)allylidene)-2,3-dihydro-1H-inden-1-one] | – | – | mostly dense core Aβ plaques in the ligand channel (column II) but not the finer aggregates composed of diffuse plaques; also recorded: highlights mostly dense core Aβ plaques
38.4 ± 1.3 | 38.4 ± 1.3 | – | 4.1 | 157 ± 5 | – | – | 0.0059 | 450 | 589 | 462 | 610 | 0.0805 | 460 | 609 | 0.1465 | – | CN(C)c1ccc(/C=C/C=C2\Cc3ccccc3C2=O)cc1 [compound 9, (E)-2-((E)-3-(4-(Dimethylamino)phenyl)allylidene)-2,3-dihydro-1H-inden-1-one] | – | – | –
44.5 ± 6.1 | 44.5 ± 6.1 | – | 3.5 | 154 ± 11.8 | – | – | 0.0061 | 402 | 572 | 440 | 603 | 0.0482 | 438 | 598 | 0.1419 | – | COc1cc(/C=C/C=C2C(=O)c3ccccc3C2=O)ccc1O [compound 20, (E)-2-(3-(4-Hydroxy-3-methoxyphenyl)allylidene)-1H-indene-1,3(2H)-dione] | – | – | –
85.1 ± 13.4 | 85.1 ± 13.4 | – | 1.7 | 144 ± 13 | – | – | 0.0051 | 401 | 549 | 447 | 587 | 0.0763 | 454 | 584 | 0.1890 | – | COc1cc(/C=C/C=C2\CCc3ccccc3C2=O)ccc1O [compound 23, (E)-2-((E)-3-(4-Hydroxy-3-methoxyphenyl)allylidene)-3,4-dihydronaphthalen-1(2H)-one] | – | – | –
97.6 ± 5.7 | 97.6 ± 5.7 | – | 1.7 | 165 ± 7.1 | – | – | 0.0063 | 397 | 565 | 452 | 582 | 0.0668 | 435 | 585 | 0.1377 | – | CN(C)c1ccc(/C=C/C=C2\CCc3ccccc3C2=O)cc1 [compound 24, (E)-2-((E)-3-(4-(Dimethylamino)phenyl)allylidene)-3,4-dihydronaphthalen-1(2H)-one] | – | – | –
66.7 ± 2 | – | – | 0.8 | 52.5 ± 3.1 | – | – | 0.0052 | 397 | 551 | 428 | 583 | 0.0766 | 424 | 574 | 0.1543 | – | COc1cc(-c2ccc(/C=C/C=C3\Cc4ccccc4C3=O)cc2)ccc1O [compound 29, (E)-2-((E)-3-(4'-Hydroxy-3'-methoxy-[1,1'-biphenyl]-4-yl)allylidene)-2,3-dihydro-1H-inden-1-one] | – | – | –
– | 18.8 ± 4 | greater than 10 x | – | 491 ± 58.9 | 579 ± 30.6 | 30.8 | 0.0104 | 392 | 563 | 448 | 586 | 0.1125 | 443 | 583 | 0.2498 | – | O=C(O)c1ccc(-c2ccc(/C=C/C=C3\Cc4ccc(O)cc4C3=O)cc2)cc1 [compound 32, 4'-((E)-3-((E)-6-Hydroxy-1-oxo-1,3-dihydro-2H-inden-2-ylidene)prop-1-en-1-yl)-[1,1'-biphenyl]-4-carboxylic acid] | – | – | –
74.2 ± 14.3 | 74.2 ± 14.3 | – | 4.5 | 337 ± 11.7 | – | – | 0.0097 | 414 | 556 | 425 | 601 | 0.0878 | 437 | 595 | 0.2058 | – | O=C(O)c1ccc(-c2ccc(/C=C/C=C3C(=O)c4ccccc4C3=O)cc2)s1 [compound 35, (E)-5-(4-(3-(1,3-Dioxo-1,3-dihydro-2H-inden-2-ylidene)prop-1-en-1-yl)phenyl)thiophene-2-carboxylic acid] | – | – | –
– | – | – | – | 393 ± 64.4 | – | – | 0.0063 | 431 | 524 | – | – | – | 446 | 556 | 0.1074 | – | O=C1/C(=C\c2ccc(-c3ccc(CO)cc3)s2)Cc2ccccc21 [compound 37, (Z)-2-((5-(4-(Hydroxymethyl)phenyl)thiophen-2-yl)methylene)-2,3-dihydro-1H-inden-1-one] | – | – | –
93.1 ± 13.8 | 93.1 ± 13.8 | – | 2.8 | 257 ± 20.3 | – | – | 0.0031 | 403 | 575 | 439 | 589 | 0.0435 | 448 | 586 | 0.1377 | – | COc1cc(-c2ccc(/C=C3/Cc4ccccc4C3=O)s2)ccc1O [compound 39, (Z)-2-((5-(4-Hydroxy-3-methoxyphenyl)thiophen-2-yl)methylene)-2,3-dihydro-1H-inden-1-one] | – | – | –
92.9 ± 6.3 | 92.9 ± 6.3 | – | 2.7 | 250 ± 37.1 | – | – | 0.0050 | 387 | 547 | 465 | 572 | 0.0596 | 478 | 581 | 0.1130 | – | COc1ncc(-c2ccc(/C=C3/Cc4ccccc4C3=O)s2)c(OC)n1 [compound 42, (Z)-2-((5-(2,4-Dimethoxypyrimidin-5-yl)thiophen-2-yl)methylene)-2,3-dihydro-1H-inden-1-one] | – | – | –
> 2000 | – | – | – | – | – | – | – | 321 | 409 | – | – | – | – | – | – | ≥ 2000 | O=C1C(=Cc2cc(-c3ccc(Br)cc3)no2)C(=O)c2ccccc21 [compound 56, 2-((3-(4-Bromophenyl)isoxazol-5-yl)methylene)-1H-indene-1,3(2H)-dione] | – | – | –
656 ± 88 | – | – | – | – | – | – | – | 326 | 388 | – | – | – | – | – | – | – | Cc1ccc2occ(/C=C3/Cc4ccc(O)cc4C3=O)c(=O)c2c1 [compound 57, (Z)-3-((6-Hydroxy-1-oxo-1,3-dihydro-2H-inden-2-ylidene)methyl)-6-methyl-4H-chromen-4-one] | – | – | –
